Reference: US20100105663A1, “2-(HETEROARYL) ALKYL INDAZOLE 6-PHENYL AND THIENYL METHYL AMIDE AS THROMBIN INHIBITORS” (BAYER HEALTHCARE AG, priority 2006, published 2010)

target: human thrombin (Homo sapiens, UniProt P00734); test: Measurement of thrombin inhibition (in vitro enzyme assay); format: biochemical; conditions: human thrombin 0.06 nmol/l, 15 min incubation at 22° C., pH 7.4; substrate 5 μmol/l Boc-Asp(OBzl)-Pro-Arg-AMC, 30 min, fluorescence
Method: For determination of the thrombin inhibition of the aforementioned substances, a biochemical test system is used, in which the conversion of a thrombin substrate is used for determining the enzymatic activity of human thrombin. In this, thrombin cleaves aminomethylcoumarin from the peptic substrate, and this is measured by fluorescence. The determinations are carried out in microtitre plates.
The test substances are dissolved at different concentrations in dimethylsulphoxide and incubated for 15 min with human thrombin (0.06 nmol/l dissolved in 50 mmol/l Tris-buffer [C,C,C-Tris(hydroxymethyl)-aminomethane], 100 mmol/l NaCl, 0.1% BSA [bovine serum albumin], pH 7.4) at 22° C. Then the substrate (5 μmol/l Boc-Asp(OBzl)-Pro-Arg-AMC from the company Bachem) is added. After incubation for 30 min the sample is excited at a wavelength of 360 nm and the emission at 460 nm is measured. The measured emissions of the test preparations with test substance are compared with the control preparations without test substance (dimethylsulphoxide only, instead of test substance in dimethylsulphoxide) and IC50 values are calculated from the concentration-effect relations.

| IC50 | SMILES |
| --- | --- |
| 110 nM | Cc1nn(CCn2cc3ccc(C(=O)NCc4cccc(Cl)c4)cc3n2)c(C)c1Cl [Example 26, N-(3-Chlorobenzyl)-2-[2-(4-chloro-3,5-dimethyl-1H-pyrazol-1-yl)ethyl]-2H-indazole-6-carboxamide] |
| 26 nM | CN(C)C(Cn1cc2ccc(C(=O)NCc3cccc(Cl)c3)cc2n1)c1ccccc1Cl (stereo not drawn) [Example 49, N-(3-Chlorobenzyl)-2-[2-(2-chlorophenyl)-2-(dimethylamino)ethyl]-2H-indazole-6-carboxamide] |
| 216 nM | O=C(NCc1cccc(Cl)c1)c1ccc2cn(CCN3CCOC3=O)nc2c1 [Example 4, N-(3-Chlorobenzyl)-2-[2-(2-oxo-1,3-oxazolidin-3-yl)ethyl]-2H-indazole-6-carboxamide] |
